Broadly, the clearance is the rate of elimination divided by the concentration. The low end stands for a low capacity for elimination, the high end for a high capacity for elimination. A word on the half-life: it is the time needed for the level to fall by half in the phase considered.

Here are results for two molecules from US12378296B2, “Glucagon analogues as long-acting GLP-1/glucagon receptor agonists in the treatment of fatty liver disease and steatohepatitis” (Boehringer Ingelheim International GmbH, priority 2020, dated 2025).

A short description of this data set: Pharmacokinetic parameters after intravenous administration to rats. It is filed as in vivo. To be noted: male, Han/Wistar, plasma, rat, i.v. 20 nmol/kg; for MRT: read-out: Mean Residence Time; for half-life: read-out: Terminal half-life (converted). The protocol: Pharmacokinetic parameters of the test compounds were determined after intravenous administration to Han/Wistar rats. The acylated GLP-1 analogue semaglutide was also tested for comparison purposes.
Male Wistar rats were obtained from Charles River (Germany) weighing approximately 180 to 210 g at time of arrival at the test facility. Rats were caged in European standard rat cages type IV with light cycle of 12-hour dark and 12-hour light. During the study rats were housed in standard rat cages type III. Both diet Altromin 1324 (Altromin, Germany) and water was administered ad libitum during the whole experimental period. The animals were housed in the test facility for at least 4 days in order to assure proper acclimatization.
The compounds were first dissolved in 0.1% aqueous ammonia to a nominal concentration of 2 mg/ml, and then diluted to the desired dosing strength (10 μM) in sterile PBS containing 25 mM phosphate buffer, pH 7.4. Intravenous injections corresponding to 20 nmol/kg were given via a lateral tail vein.
Blood samples (200 μl) were collected from the periorbital plexus at time points 0.08, 0.25, 0.5, 1, 2, 4, 8, 24, 32 and 48 h post dosing into K3EDTA tubes and centrifuged for 5 minutes at 4° C. within 20 minutes of sampling. Plasma samples (>100 μl) were transferred to 96-well PCR plates, immediately frozen and kept at −20° C. until analysed for plasma concentration for the respective GLP-1-glucagon compound using LC-MS/MS. Individual plasma concentration-time profiles were analysed by a non-compartmental approach using ToxKin™ version 3.2 (Unilog IT Services), and the resulting pharmacokinetic parameters were determined.

`CC[C@H](C)[C@H](NC(=O)[C@H](Cc1ccccc1)NC(=O)[C@H](CC(=O)O)NC(=O)[C@H](CCCCN)NC(=O)[C@H](C)NC(=O)[C@H](C)NC(=O)[C@H](CCCNC(=N)N)NC(=O)[C@H](CCC(=O)O)NC(=O)[C@H](CC(=O)O)NC(=O)[C@H](CC(C)C)NC(=O)[C@H](Cc1ccc(O)cc1)NC(=O)[C@H](CCCCN)NC(=O)[C@H](CO)NC(=O)[C@H](Cc1ccc(O)cc1)NC(=O)[C@H](CC(=O)O)NC(=O)[C@H](CO)NC(=O)[C@@H](NC(=O)[C@H](Cc1ccccc1)NC(=O)[C@@H](NC(=O)CNC(=O)[C@H](CCC(N)=O)NC(=O)C1(NC(=O)[C@@H](N)Cc2c[nH]cn2)CCC1)[C@@H](C)O)[C@@H](C)O)C(=O)N[C@@H](CCCCNC(=O)CNC(=O)CNC(=O)[C@H](CO)NC(=O)CNC(=O)[C@H](CO)NC(=O)CNC(=O)CC[C@H](NC(=O)CCCCCCCCCCCCCCCCC(=O)O)C(=O)O)C(=O)N[C@@H](Cc1c[nH]c2ccccc12)C(=O)N[C@@H](CC(C)C)C(=O)N[C@@H](CCC(=O)O)C(=O)N[C@@H](CO)C(=O)N[C@@H](C)C(N)=O` [Compound 5]: the clearance came to 3.57 mL/h/kg, the MRT was found to be 28.5 h and the half-life was 22.8 h.

Regarding `CC[C@H](C)[C@H](NC(=O)[C@H](Cc1ccccc1)NC(=O)[C@H](CC(=O)O)NC(=O)[C@H](CCCCN)NC(=O)[C@H](C)NC(=O)[C@H](C)NC(=O)[C@H](CCCNC(=N)N)NC(=O)[C@H](CCC(=O)O)NC(=O)[C@H](CC(=O)O)NC(=O)[C@H](CC(C)C)NC(=O)[C@H](Cc1ccc(O)cc1)NC(=O)[C@H](CCCCN)NC(=O)[C@H](CO)NC(=O)[C@H](Cc1ccc(O)cc1)NC(=O)[C@H](CC(=O)O)NC(=O)[C@H](CO)NC(=O)[C@@H](NC(=O)[C@H](Cc1ccccc1)NC(=O)[C@@H](NC(=O)CNC(=O)[C@H](CCC(N)=O)NC(=O)C1(NC(=O)[C@@H](N)Cc2c[nH]cn2)CCC1)[C@@H](C)O)[C@@H](C)O)C(=O)N[C@@H](CCC(=O)O)C(=O)N[C@@H](Cc1c[nH]c2ccccc12)C(=O)N[C@@H](CC(C)C)C(=O)N[C@@H](CCC(=O)O)C(=O)N[C@@H](CCCCNC(=O)CNC(=O)CNC(=O)[C@H](CO)NC(=O)CNC(=O)[C@H](CO)NC(=O)CNC(=O)CC[C@H](NC(=O)CCCCCCCCCCCCCCCCC(=O)O)C(=O)O)C(=O)N[C@@H](C)C(N)=O` [Compound 6], the clearance turned out to be 5.98 mL/h/kg, the MRT turned out to be 23.7 h and the half-life is 18.1 h.
